Data on 20 molecules can be found in patent publication US20250136553A1, “ACYLSULFONAMIDE KAT6A INHIBITORS” (Olema Pharmaceuticals, Inc., priority 2023, published 2025).

Structures are written as SMILES.

The assay deals with human-KAT6A (MYST domain 507-778 aa) (Homo sapiens (Human), UniProt Q92794). The assay is described as follows: KAT6A biochemical assay (TR-FRET). Particulars: for IC50: TR-FRET, histone H4 peptide 200 nM, acetyl-CoA 600 nM, read-out: KAT6A IC50. The method, boiled down: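 KAT6A MYST domain preincubated with compound 30 min at 25° C, then reacted 60 min at 25° C with 200 nM biotin-H4 peptide and 600 nM acetyl-CoA (final). Europium anti-acetyl-lysine/streptavidin-APC TR-FRET read (Ex 340, Em 615/665 nm); % inhibition from 665/615 ratio, IC50 by sigmoidal fit.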
human-KAT6A (MYST domain 507-778 aa), sequence (Q92794 507-778): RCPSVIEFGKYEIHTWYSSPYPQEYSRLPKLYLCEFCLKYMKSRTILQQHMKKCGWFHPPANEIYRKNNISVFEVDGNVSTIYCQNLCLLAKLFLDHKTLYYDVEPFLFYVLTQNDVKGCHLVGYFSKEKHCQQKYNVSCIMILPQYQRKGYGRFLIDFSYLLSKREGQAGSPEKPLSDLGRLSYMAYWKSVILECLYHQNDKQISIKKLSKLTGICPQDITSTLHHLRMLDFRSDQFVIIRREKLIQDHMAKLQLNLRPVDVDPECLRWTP

On to `COc1ccc(C)c(OC)c1[S@@](=N)(=O)NC(=O)c1ccc(Cn2cccn2)c(OC)n1` [Compound 301b, (S)-5-((1H-pyrazol-1-yl)methyl)-N-(2,6-dimethoxy-3-methylphenylsulfonimidoyl)-6-methoxypicolinamide], for which the IC50 stood at 17 nM. On the same count and under the same terms, in the case of `COc1cc(C(=O)N[S@@](=N)(=O)c2c(OC)ccc(Cl)c2OC)ccc1Cn1cccn1` [Compound 302a, (R)-4-((1H-pyrazol-1-yl)methyl)-N-(3-chloro-2,6-dimethoxyphenylsulfonimidoyl)-3-methoxybenzamide] it was 21 nM; in that of `COc1cc(C(=O)N[S@](=N)(=O)c2c(OC)ccc(Cl)c2OC)ccc1Cn1cccn1` [Compound 302b, (S)-4-((1H-pyrazol-1-yl)methyl)-N-(3-chloro-2,6-dimethoxyphenylsulfonimidoyl)-3-methoxybenzamide], 304 nM.

Turning to `COc1nc(C(=O)N[S@@](=N)(=O)c2cccc3c2OCC3)ccc1Cn1cccn1` [Compound 303a, (R)-5-((1H-pyrazol-1-yl)methyl)-N-(2,3-dihydrobenzofuran-7-sulfonimidoyl)-6-methoxypicolinamide], the 50% inhibitory concentration (IC50) came out at 26 nM. Still for that read-out and setting: the figure for `COc1nc(C(=O)N[S@](=N)(=O)c2cccc3c2OCC3)ccc1Cn1cccn1` [Compound 303b, (S)-5-((1H-pyrazol-1-yl)methyl)-N-(2,3-dihydrobenzofuran-7-sulfonimidoyl)-6-methoxypicolinamide] is 108 nM. `COc1cc(C(=O)N[S@@](=N)(=O)c2c(OC)ccc(C)c2OC)ccc1Cn1cccn1` [Compound 304a, (R)-4-((1H-pyrazol-1-yl)methyl)-N-(2,6-dimethoxy-3-methylphenylsulfonimidoyl)-3-methoxybenzamide]: the IC50 came to 18 nM. In the case of `COc1cc(C(=O)N[S@](=N)(=O)c2c(OC)ccc(C)c2OC)ccc1Cn1cccn1` [Compound 304b, (S)-4-((1H-pyrazol-1-yl)methyl)-N-(2,6-dimethoxy-3-methylphenylsulfonimidoyl)-3-methoxybenzamide], the IC50 is 130 nM. The same measure, in the same setting: the figure for `COc1cccc(F)c1[S@](=N)(=O)NC(=O)c1ccc(Cn2cccn2)c(OC)n1` [Compound 305a, (R)-5-((1H-pyrazol-1-yl)methyl)-N-(2-fluoro-6-methoxyphenylsulfonimidoyl)-6-methoxypicolinamide] is 15 nM. On to `COc1cccc(F)c1[S@@](=N)(=O)NC(=O)c1ccc(Cn2cccn2)c(OC)n1` [Compound 305b, (S)-5-((1H-pyrazol-1-yl)methyl)-N-(2-fluoro-6-methoxyphenylsulfonimidoyl)-6-methoxypicolinamide], for which the IC50 turned out to be 318 nM. On the same count and under the same terms, the figure for `COc1cc(C)cc(OC)c1[S@](=N)(=O)NC(=O)c1ccc(Cn2cccn2)c(OC)n1` [Compound 306a, (R)-5-((1H-pyrazol-1-yl)methyl)-N-(2,6-dimethoxy-4-methylphenylsulfonimidoyl)-6-methoxypicolinamide] is 12 nM; for `COc1cc(C)cc(OC)c1[S@@](=N)(=O)NC(=O)c1ccc(Cn2cccn2)c(OC)n1` [Compound 306b, (S)-5-((1H-pyrazol-1-yl)methyl)-N-(2,6-dimethoxy-4-methylphenylsulfonimidoyl)-6-methoxypicolinamide] it is 280 nM; for `COc1nc(C(=O)N[S@@](=N)(=O)c2ccccc2F)ccc1Cn1cccn1` [Compound 307a, (R)-5-((1H-pyrazol-1-yl)methyl)-N-(2-fluorophenylsulfonimidoyl)-6-methoxypicolinamide] it is 108 nM. `COc1nc(C(=O)N[S@](=N)(=O)c2ccccc2F)ccc1Cn1cccn1` [Compound 307b, (S)-5-((1H-pyrazol-1-yl)methyl)-N-(2-fluorophenylsulfonimidoyl)-6-methoxypicolinamide]: the inhibition at 1 µM (@ 1 μM, reported where IC50 could not be determined, read-out: Percent inhibition at specific concentration (KAT6A)) was 46%. Turning to `COc1nc(C(=O)N[S@@](=N)(=O)c2c(F)cccc2F)ccc1Cn1cccn1` [Compound 308a, (R)-5-((1H-pyrazol-1-yl)methyl)-N-(2,6-difluorophenylsulfonimidoyl)-6-methoxypicolinamide], the concentration for half-maximal inhibition (IC50) was 1580 nM. Still for that read-out and setting: in the case of `COc1nc(C(=O)N[S@](=N)(=O)c2c(F)cccc2F)ccc1Cn1cccn1` [Compound 308b, (S)-5-((1H-pyrazol-1-yl)methyl)-N-(2,6-difluorophenylsulfonimidoyl)-6-methoxypicolinamide] it was 49 nM; in that of `COc1cc(C(=O)NS(=O)(=O)c2cc(Cl)cc3c2OCC3)ccc1Cn1cccn1` [Compound 309, 4-((1H-pyrazol-1-yl)methyl)-N-((5-chloro-2,3-dihydrobenzofuran-7-yl)sulfonyl)-3-methoxybenzamide], 17 nM; in that of `COc1cc(C(=O)NS(=O)(=O)c2ccc3c(c2)CCO3)ccc1Cn1cccn1` [Compound 310, 4-((1H-pyrazol-1-yl)methyl)-N-((2,3-dihydrobenzofuran-5-yl)sulfonyl)-3-methoxybenzamide], 112 nM. Consider `COc1ccc(S(=O)(=O)NC(=O)c2ccc(Cn3cccn3)c(OC)c2)cc1Cl` [Compound 311, 4-((1H-pyrazol-1-yl)methyl)-N-((3-chloro-4-methoxyphenyl)sulfonyl)-3-methoxybenzamide], for which the IC50 turned out to be 135 nM. As to `COc1cc(C(=O)NS(=O)(=O)c2ccccc2OC2CC2)ccc1Cn1cccn1` [Compound 313, 4-((1H-pyrazol-1-yl)methyl)-N-((2-cyclopropoxyphenyl)sulfonyl)-3-methoxybenzamide], the IC50 amounted to 32 nM.

`COc1cc(C(=O)NS(=O)(=O)c2cccc3c2OC(C)C3)ccc1Cn1cccn1` (centres unmarked) [Compound 314, 4-((1H-pyrazol-1-yl)methyl)-3-methoxy-N-((2-methyl-2,3-dihydrobenzofuran-7-yl)sulfonyl)benzamide]: the IC50 came out at 13 nM.
